# According to article PMC12195967, “Cobalt(II) Complexes of 4′–Nitro–Fenamic Acid: Characterization and Biological Evaluation” (Molecules, 2025):
# Tests used:
# [1] = Solubility; assay type: physicochemical
# [2] = target: T1, bovine serum albumin (BSA) (Bos taurus, UniProt P02769); assay: Albumin tryptophan fluorescence quenching; assay type: binding; details: for relative fluorescence intensity of BSA (I/Io, %), final: % of the initial BSA fluorescence remaining, λem 345 nm; for K(BSA): Scatchard equation, no site marker; for Kq (BSA): τ0 = 10^−8 s
# T1 construct: purchased Sigma-Aldrich Co
# T1 sequence (P02769 25-607): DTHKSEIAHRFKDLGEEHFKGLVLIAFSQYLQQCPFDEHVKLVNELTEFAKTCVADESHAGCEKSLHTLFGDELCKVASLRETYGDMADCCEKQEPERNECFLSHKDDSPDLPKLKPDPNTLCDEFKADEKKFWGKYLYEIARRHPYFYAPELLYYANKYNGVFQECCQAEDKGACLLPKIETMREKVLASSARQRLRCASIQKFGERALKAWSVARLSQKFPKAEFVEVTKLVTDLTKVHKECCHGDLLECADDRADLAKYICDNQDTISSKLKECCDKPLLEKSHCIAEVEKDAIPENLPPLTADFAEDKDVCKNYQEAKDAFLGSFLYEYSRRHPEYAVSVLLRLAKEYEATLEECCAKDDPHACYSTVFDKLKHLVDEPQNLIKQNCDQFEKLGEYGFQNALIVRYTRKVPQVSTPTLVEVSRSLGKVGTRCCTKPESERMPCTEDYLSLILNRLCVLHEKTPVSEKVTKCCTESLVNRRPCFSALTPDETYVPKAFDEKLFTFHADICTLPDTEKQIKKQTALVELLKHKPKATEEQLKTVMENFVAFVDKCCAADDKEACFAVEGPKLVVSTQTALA
# Description: (§1) The interaction between complexes 1–4 and albumins was investigated by recording the tryptophan fluorescence emission spectra and monitoring the quenching induced by incremental amounts of the complexes. For these experiments, albumins ([…]) were prepared in buffer solution (150 mM NaCl and 15 mM trisodium citrate at pH = 7) and their fluorescence emission spectra were recorded in the range 300—500 nm for λexcitation = 295 nm. Upon incremental addition of the compounds (Figures S13 and S14), a significant decrease in the intensity of the corresponding emission band at λmax,emission = 341 nm and 345 nm for HSA and BSA, respectively, was observed (up to 87% of the initial fluorescence, Figure 8). The observed fluorescence emission quenching might be a result of a change in the spatial conformation of the protein and specifically of rearrangement of its secondary structure, as a result of SA–complex interactions. To quantify this interaction, the fluorescence emission spectra (λexcitation = 295 nm) of the compounds were subtracted from the corresponding overall spectra. The potential influence of the inner-filter effect on the measurements was evaluated with Equation (S6) and was found negligible to affect the measurements.
# (§2) The Stern–Volmer constant (KSV), the SA-quenching constant (Kq) and the SA-binding constant (K) of the compounds were determined using the Stern–Volmer and Scatchard equations (Equations (S2), (S3) and (S7)) and corresponding plots (Figures S15–S18). In these calculations, the fluorescence lifetime of tryptophan in SAs (το) was assumed to be 10^−8 s. […]
# (§3) S5 Albumin−binding studies
# (§4) S5.1 Interaction with albumins
# (§5) In order to study the interaction of the compounds with the albumins, the compound was initially dissolved in DMSO (1 mM). Mixing of such solutions with the aqueous buffer solutions of the albumins used in the studies never exceeded 5% DMSO (v/v) in the final solution, which was needed due to low aqueous solubility of most […]
# (§6) With the purpose to investigate if the compound can bind to carrier protein like serum albumins, albumin binding studies were carried out by tryptophan fluorescence quenching experiments using BSA or HSA (3 μM) in buffer (containing 15 mM trisodium citrate and 150 mM NaCl at pH 7.0). The quenching of the emission intensity of tryptophan residues of BSA at 344 nm or HSA at 342 nm was monitored using the compound as quenchers with increasing concentration. The fluorescence emission spectra of the compound were also recorded with λexcitation = 295 nm; in case that an additional emission band appeared the albumin−fluorescence emission spectra were corrected by subtracting the spectra of the compound. The influence of the inner−filter effect on the measurements was evaluated by the equation [9] :
# (§7) Icorr = Imeas × 10 2 × 10 2 (equation S6) where Icorr = corrected intensity, Imeas = the measured intensity, c = the concentration of the quencher, d = the cuvette (1 cm), ε(λexc) and ε(λem) = the ε of the quencher at the excitation and the emission wavelength, respectively, as calculated from the UV−vis spectra of the […]
# (§8) The Stern−Volmer and Scatchard graphs are used to study the interaction of the compound with the albumins. According to the Stern−Volmer quenching equation (equation S2), where Io = initial tryptophan fluorescence intensity of albumin, I = tryptophan fluorescence intensity of BSA after the addition of the quencher, Kq = quenching constant, KSV = Stern−Volmer constant, τo = average lifetime of albumin without the quencher, and, taking as fluorescence lifetime (τo) of tryptophan in albumin at around 10−8 s, KSV (in M−1) can be obtained by the slope of the diagram Io/I versus [compound] (Stern−Volmer plots), […]
# (§9) and subsequently the quenching constant (Kq, in M−1s−1) may be calculated from equation From the Scatchard equation:
# (§10) [Q] = nK − K Io (equation S7) where n is the number of binding sites per albumin and K is the albumin−binding constant […]
# [3] = target: T2, human serum albumin (HSA) (Homo sapiens, UniProt P02768); assay: Albumin tryptophan fluorescence quenching; assay type: binding; details: for relative fluorescence intensity of HSA (I/Io, %), final: % of the initial HSA fluorescence remaining, λem 341 nm; for K(HSA): Scatchard equation, no site marker; for Kq (HSA): τ0 = 10^−8 s
# T2 construct: purchased Sigma-Aldrich Co
# T2 sequence (P02768 25-609): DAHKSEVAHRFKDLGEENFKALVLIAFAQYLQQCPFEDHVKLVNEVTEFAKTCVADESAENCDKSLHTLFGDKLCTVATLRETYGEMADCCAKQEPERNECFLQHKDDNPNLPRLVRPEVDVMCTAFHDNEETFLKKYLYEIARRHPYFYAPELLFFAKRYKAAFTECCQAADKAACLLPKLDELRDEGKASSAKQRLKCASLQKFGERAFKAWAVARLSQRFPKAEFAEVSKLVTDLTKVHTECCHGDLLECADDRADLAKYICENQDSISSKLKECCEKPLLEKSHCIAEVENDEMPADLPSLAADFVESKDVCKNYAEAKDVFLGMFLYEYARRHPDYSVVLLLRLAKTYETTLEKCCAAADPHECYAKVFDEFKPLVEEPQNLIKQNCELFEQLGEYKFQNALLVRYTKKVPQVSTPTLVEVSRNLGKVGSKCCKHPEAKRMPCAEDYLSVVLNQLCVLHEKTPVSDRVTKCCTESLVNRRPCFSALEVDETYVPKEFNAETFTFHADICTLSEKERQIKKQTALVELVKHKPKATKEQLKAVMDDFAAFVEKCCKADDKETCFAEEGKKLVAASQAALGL
# Description: as §1, §2, §3, §4, §5, §6, §7, §8, §9, §10
# [4] = test system: CT DNA; assay: DNA-melting temperature of CT DNA in presence of the compounds; assay type: binding, calf; details: compound–DNA ratio 1:50; for Tm of CT DNA in the presence of the compound: CT DNA alone Tm 80.7 °C; for ΔTm of CT DNA: versus CT DNA alone 80.7 °C
# Description: In order to further clarify the interaction mode of the compounds with CT DNA, the effect of the temperature of this interaction was also investigated. Within this context, the thermal denaturation of DNA in the presence of the compounds was studied with UV-vis spectroscopy in order to calculate (via a sigmoidal fitting of the experimental data) the DNA-melting temperature (Tm), i.e., the temperature at which half of double-stranded DNA is denatured (“melted”) to single-stranded DNA.
# S3 Binding studies with CT DNA
# In order to study the interaction of the compounds with DNA, the compound was initially dissolved in DMSO (1 mM). Mixing of such solutions with the aqueous buffer solutions of DNA used in the studies never exceeded 5% DMSO (v/v) in the final solution, which was needed due to low aqueous solubility of most compounds. In all experiments, the effect of DMSO on the data has been taken into consideration and the appropriate corrections have been performed. The interaction of the compound with CT DNA was monitored by UV−vis spectroscopy, and viscosity measurements, and via competitive studies with EB by fluorescence emission spectroscopy. […]
# S3.2 Determination of the DNA–melting temperature (Tm)
# The UV–vis spectra of a CT DNA solution (1.25×10–4 M) in the presence of the compounds (2.5×10–6 M) were recorded upon increasing the temperature. The obtained data are presented as normalized absorbance at 260 nm (Normalized A(260 nm)) versus temperature (T (ºC)). A sigmoidal fitting of the data was applied for each compound and the melting temperature Tm (temperature with normalized absorbance of 0.5) was determined. […]
Structure (SMILES),solubility in H2O and MeCN [1],"relative fluorescence intensity of BSA (I/Io, %), final [2]",K(BSA) [2],Kq (BSA) [2],"relative fluorescence intensity of HSA (I/Io, %), final [3]",K(HSA) [3],Kq (HSA) [3],Tm of CT DNA in the presence of the compound [4],ΔTm of CT DNA [4]
"CO.CO.CO.CO.O=C([O-])c1ccccc1Nc1ccc([N+](=O)[O-])cc1.O=C([O-])c1ccccc1Nc1ccc([N+](=O)[O-])cc1.[Co+2] [Complex 1, [Co(4′–NO2–fen)2(MeOH)4]]",partially soluble,45.6%,1.68 (±0.07) × 10^5 M^−1,9.51 (±0.06) × 10^12 M^−1s^−1,32.8%,1.68 (±0.04) × 10^5 M^−1,1.10 (±0.03) × 10^13 M^−1s^−1,83.7 °C,
"O=C(O)c1ccccc1Nc1ccc([N+](=O)[O-])cc1 [4′–NO2–fenH, 4′–nitrofenamic acid]",,45.0%,3.31 (±0.14) × 10^5 M^−1,1.18 (±0.09) × 10^13 M^−1s^−1,54.3%,3.82 (±0.09) × 10^5 M^−1,9.54 (±1.09) × 10^12 M^−1s^−1,83.7 °C,
"C[O-].C[O-].Cc1ccc2ccc3ccc(C)nc3c2n1.Cc1ccc2ccc3ccc(C)nc3c2n1.O=C([O-])c1ccccc1Nc1ccc([N+](=O)[O-])cc1.O=C([O-])c1ccccc1Nc1ccc([N+](=O)[O-])cc1.[Co+2].[Co+2] [Complex 4, [Co2(4′–NO2–fen)2(μ–CH3O)2(neoc)2]]",partially soluble,19.2%,2.74 (±0.10) × 10^5 M^−1,2.19 (±0.05) × 10^13 M^−1s^−1,12.1%,5.03 (±0.19) × 10^5 M^−1,3.98 (±0.12) × 10^13 M^−1s^−1,73.9 °C,negative
"O=C([O-])c1ccccc1Nc1ccc([N+](=O)[O-])cc1.O=C([O-])c1ccccc1Nc1ccc([N+](=O)[O-])cc1.[Co+2].c1cnc2c(c1)ccc1cccnc12 [Complex 3, [Co(4′–NO2–fen)2(phen)]]",partially soluble,24.4%,2.06 (±0.07) × 10^5 M^−1,1.64 (±0.04) × 10^13 M^−1s^−1,22.7%,1.93 (±0.09) × 10^5 M^−1,1.87 (±0.04) × 10^13 M^−1s^−1,84.7 °C,
"O=C([O-])c1ccccc1Nc1ccc([N+](=O)[O-])cc1.O=C([O-])c1ccccc1Nc1ccc([N+](=O)[O-])cc1.[Co+2].c1ccc(Nc2ccccn2)nc1 [Complex 2, [Co(4′–NO2–fen)2(bipyam)]]",partially soluble,35.3%,1.75 (±0.08) × 10^5 M^−1,1.30 (±0.06) × 10^13 M^−1s^−1,21.1%,2.56 (±0.10) × 10^5 M^−1,1.91 (±0.06) × 10^13 M^−1s^−1,74.5 °C,negative
